Reference: PMC10315211 (Molecular microbiology, 2023)

Molecular target: Rv0805 (N-His-Rv0805) (Mycobacterium tuberculosis, UniProt P9WP65)
Sequence (P9WP65 whole entry): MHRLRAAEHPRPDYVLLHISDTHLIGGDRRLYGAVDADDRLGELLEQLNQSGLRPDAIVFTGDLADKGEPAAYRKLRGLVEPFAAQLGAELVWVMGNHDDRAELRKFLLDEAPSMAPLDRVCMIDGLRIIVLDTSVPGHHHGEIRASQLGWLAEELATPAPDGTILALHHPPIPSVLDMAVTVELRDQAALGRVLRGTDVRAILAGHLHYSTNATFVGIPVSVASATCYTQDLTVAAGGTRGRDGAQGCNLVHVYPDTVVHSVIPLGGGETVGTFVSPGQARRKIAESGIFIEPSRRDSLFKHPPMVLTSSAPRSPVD

## C[N+](C)(C)CCOP(=O)([O-])OC[C@H](O)CO [glycerophosphocholine]
  choline oxidase / HRP coupled Amplex Red fluorometric assay: both Rv0805 and CpdAEc produced choline and Gly3P from glycerophosphocholine (GPC)
